Data as given in patent publication US9034862B2, “Compositions and methods for the treatment of cancer” (priority 2011, dated 2015).
Values belong to the molecule of their own block, whether it stands above or below them.

Experiments:
[1] = tested on: human lung carcinoma A549; assay: MTT assay, A549; type: cell-based
Procedure: (§6) Solutions of the platinum compounds were freshly prepared in sterile PBS before use and their concentrations quantitated by atomic absorption spectroscopy. Cells were seeded on a 96-well plate (1200 cells per well for cancer cells and 1800 cells per well for the normal lung fibroblasts) in 100 μL RPMI or DMEM media, and incubated for 24 h. […] The cells were then treated with 20 μL of 3-(4,5-dimethylthiazol-2-yl)-2,5-diphenyltetrazolium bromide (MTT) (5 mg/mL in PBS) and incubated for 4 h. The medium was removed, 100 μL of DMSO was added to the cells, and the absorbance of the purple formazan was recorded at 560 nm using a BioTek Synergy HT multi-detection microplate plate reader. Each condition was performed in triplicate and three independent experiments were carried out for each cell line.
(§7) Human prostate carcinoma (PC3) and human cervix carcinoma (HeLa) cells were obtained from the ATCC. The human lung carcinoma cell line A549 was kindly provided by David E. Root (Whitehead Institute for Biomedical Research). Cells were incubated at 37° C. in 5% CO2 and grown in RPMI (PC3) or DMEM (A549 and HeLa) medium supplemented with 10% fetal bovine serum and 1% penicillin/streptomycin. Cells were passaged every 3 to 4 days and restarted from the frozen stock upon reaching passage number 20.
(§8) Solutions of the platinum agents were freshly prepared in sterile PBS before use and the platinum content was quantitated by AAS. Cells were seeded on 96 well plates (1200 cells per well) in 100 μL RPMI or DMEM media\ and incubated for 24 hours. […] The cells were then treated with 20 μL of 3-(4,5-dimethylthiazol-2-yl)-2,5-diphenyltetrazolium bromide (MTT) (5 mg/mL in PBS) and incubated for 4 h. The medium was removed, 100 μL of DMSO were added to the cells, and the absorbance of the purple formazan was recorded at 570 nm using a BioTek Synergy HT multi-detection microplate plate reader. For each cell line, three independent experiments were carried out in triplicate.

[2] = tested on: human cervix carcinoma HeLa cells; assay: MTT assay, HeLa; type: cell-based
Procedure: as §6, §7, §8

[3] = tested on: human breast carcinoma MCF7; assay: MTT assay, MCF7; type: cell-based; conditions: Table 3, MCF7 Breast, 72-h incubation
Procedure: (§1) Human colon carcinoma HT29, human breast carcinoma MCF7, human bone sarcoma U2OS, human prostate carcinoma PC3, and human cervix carcinoma HeLa cells were obtained from the ATCC. A2780/CP70 cisplatin-resistant human ovarian cancer cells were kindly provided by Dr. Stephen B. Howell (Moores UCSD Cancer Center) and the human lung carcinoma cell lines A549 and normal lung fibroblast MRC5 by David E. Root (Whitehead Institute for Biomedical Research). Cells were incubated at 37° C. in 5% CO2 and grown in RPMI (HT29, A2780/CP70, and PC3) or DMEM (A549, MRC5, HeLa, MCF7, and U2OS) medium supplemented with 10% fetal bovine serum and 1% penicillin/streptomycin. Cells were passed every 3 to 4 days and restarted from a frozen stock upon reaching pass number 20.
(§2) Solutions of the platinum compounds were freshly prepared in sterile PBS before use and their concentrations quantitated by atomic absorption spectroscopy. […] The cells were then treated with 20 μL of 3-(4,5-dimethylthiazol-2-yl)-2,5-diphenyltetrazolium bromide (MTT) (5 mg/mL in PBS) and incubated for 4 h. The medium was removed, 100 μL of DMSO was added to the cells, and the absorbance of the purple formazan was recorded at 560 nm using a BioTek Synergy HT multi-detection microplate plate reader. Each condition was performed in triplicate and three independent experiments were carried out for each cell line.

[4] = tested on: human bone sarcoma U2OS; assay: MTT assay, U2OS; type: cell-based; conditions: 72-h incubation
Procedure: as §1, §2

[5] = tested on: Human colon carcinoma HT29; assay: MTT assay, HT29; type: cell-based
Procedure: as §1, §2

[6] = tested on: NTera2; assay: MTT assay, NTera2; type: cell-based, human; conditions: Table 3, NTera2 Testis, 72-h incubation
Procedure: as §6

[7] = tested on: human prostate carcinoma PC3; assay: MTT assay, PC3; type: cell-based
Procedure: as §6, §7, §8

[8] = tested on: normal lung fibroblast MRC5; assay: MTT assay, MRC5; type: cell-based, human
Procedure: as §1, §2

[9] = tested on: Normal lung fibroblasts (MRC5) and cancerous lung (A549) cells; assay: Selective killing of cancer cells, MRC5 vs A549 (MTT); type: cell-based, human; conditions: 72 h
Procedure: as §2

[10] = tested on: calf thymus DNA; assay: Ethidium bromide DNA-binding competition, Scatchard analysis; parameters: key: competitive (type A); non-competitive (type D); both (type B); No inhibition of ethidium binding is labeled as type C
Source text: Using this approach, it is possible to determine whether the inhibition of ethidium binding is competitive (type A), non-competitive (type D), or both (type B). No inhibition of ethidium binding is labeled as type C.

[11] = tested on: pGLuc plasmid; assay: Platination of pGLuc plasmid; type: biochemical
Procedure: The resulting mixtures were dialyzed (molecular weight cut-off 3.5 kDa) against ddH2O overnight at 4° C. with five changes of ddH2O. The rb values (bound Pt/nucleotide) were determined by UV/Vis and atomic absorption spectroscopy.
In one embodiment, the ratio of bound platinum per plasmid was determined by measuring the Pt concentration by atomic absorption spectroscopy and the DNA concentration by UV/Vis spectroscopy.

[12] = tested on: GLuc expression in A549 cells; assay: Transcription assay, globally platinated pGLuc, A549; type: cell-based, human; conditions: for transcription level (normalized against unplatinated plasmid): Pt/DNA ratio of […] for phenanthriplatin
Procedure: (§3) Transfection of transcription probes into A549 and HT29 cells with the pGLuc plasmid was carried out using liposomal transfecting agents. Determination of expression levels was tested by Luciferase assays monitored by a luminometer (J. Am. Chem. Soc. 2010, 132, 7429-7435). A549 cells were plated in 96-well plates at 2,000 cells/well and HT29 cells were plated in 96-well plates at 6,000 cells/well. After 48 h incubation (at ˜30% confluence), cells were transfected with 50 ng of platinated plasmids in 25 μL Opti-MEM and 0.125 μL Lipofectamine 2000, and subsequently 50 μL of antibiotics-free DMEM supplemented with 10% FBS. After 2 h, the cells were washed with medium and 100 μL of fresh medium was added. The experiment was carried out in quadruplicate.
(§4) GLuc activity was monitored using a luminescence plate reader (Synergy 2, BioTek, Winooski, Vt., USA). A 10 μL volume of medium at different time points (12, 24, 36, 48, 60 h) was transferred into opaque white 96-well plates, and 25 μL of GLuc assay solution (10 μM colelenterazine (NanoLight Technologies, Pinetop, Ariz., USA) in 2.5 mM acidified methanol (100 mM HCl), buffer (10 mM Tris-HCl pH 7.8, 1 mM EDTA, 0.6 M NaCl)) was added by the automatic injector of the instrument.
(§5) In another embodiment, A549 or HT29 cells were transfected using the platinated transcription probes, and transcription levels were investigated by determining GLuc expression as measured by […] following addition of coelenterazine as a substrate for the exported enzyme. The emission intensities were normalized against unplatinated plasmids as a control. Transcription profiles were obtained by plotting normalized levels of GLuc expression against platination levels (Pt/plasmid ratio) at five different time points. […] An increase in D0 value at different time points represents restoration of transcription.

[13] = tested on: GLuc expression in HT29 cells; assay: Transcription assay, globally platinated pGLuc, HT29; type: cell-based, human; conditions: for transcription level (normalized against unplatinated plasmid): Pt/DNA ratio of […] for phenanthriplatin
Procedure: as §3, §4, §5

Molecule: N.N.[Cl][Pt][Cl] [cisplatin]
IC50 ([1]; Table 3, A549 Lung, 72-h incubation): 6.75 ± 0.38 µM | IC50 ([1]; Table 4, A549 human lung carcinoma, 72 h incubation): 6.62 ± 0.4 µM | IC50 ([1]; Table 5, A549, 72-h incubation): 6.75 ± 0.38 µM | IC50 ([1]; Table 11 (Example 3), A549 Lung, 72 h): 6.47 ± 0.74 µM | IC50 ([2]; Table 3, HeLa Cervix, 72-h incubation): 1.77 ± 0.72 µM | IC50 ([2]; Table 5, HeLa, 72-h incubation): 1.77 ± 0.72 µM | IC50 ([2]; Table 11 (Example 3), HeLa Cervix, 72 h): 1.78 ± 0.15 µM | IC50 [3]: 11.6 ± 0.6 µM | IC50 ([4]; Table 3, U2OS Bone): 7.15 ± 0.25 µM | IC50 ([4]; Table 5, U2OS): 7.15 ± 0.25 µM | IC50 ([5]; Table 3, HT29 Colorectal, 72-h incubation): 15.9 ± 1.5 µM | IC50 ([5]; Table 5, HT29, 72-h incubation): 15.9 ± 1.5 µM | IC50 [6]: 0.14 ± 0.03 µM | IC50 ([7]; Table 3, PC3 Prostate, 72-h incubation): 4.56 ± 0.52 µM | IC50 ([7]; Table 11 (Example 3), PC3 Prostate, 72 h): 3.93 ± 0.52 µM | IC50 ([8]; Table 4, MRC5 normal lung fibroblast, 72 h incubation): 6.18 ± 0.16 µM | IC50 ([8]; Table 5, MRC5, 72-h incubation): 6.18 ± 0.16 µM | ratio of IC50 values in healthy MRC5 cells to those in cancerous A549 cells [9]: 0.9 | type of inhibition of ethidium binding (Scatchard) ([10]; 12-h incubation period): type C | type of inhibition of ethidium binding (Scatchard) ([10]; 1 min incubation period): type C | Pt adducts per plasmid ([11]; rf 0.00074, 16 h at 37° C.): 4.64 Pt adducts per plasmid | rb (bound Pt/nucleotide) ([11]; rf 0.00074, 16 h at 37° C.): 0.0006 | Pt adducts per plasmid ([11]; rf 0.0014, 16 h at 37° C.): 11.67 Pt adducts per plasmid | rb (bound Pt/nucleotide) ([11]; rf 0.0014, 16 h at 37° C.): 0.0015 | Pt adducts per plasmid ([11]; rf 0.0028, 16 h at 37° C.): 20.65 Pt adducts per plasmid | rb (bound Pt/nucleotide) ([11]; rf 0.0028, 16 h at 37° C.): 0.0026 | Pt adducts per plasmid ([11]; rf 0.0056, 16 h at 37° C.): 43.35 Pt adducts per plasmid | rb (bound Pt/nucleotide) ([11]; rf 0.0056, 16 h at 37° C.): 0.0054 | transcription level (normalized against unplatinated plasmid) ([12]; A549, 12 h): 25.8% | D0 (Pt lesions per plasmid required to reduce transcription levels to 37% of control) ([12]; A549, 12 h after transfection): 16.8 Pt/plasmid | D0 (Pt lesions per plasmid required to reduce transcription levels to 37% of control) ([12]; A549, 24 h after transfection): 20.0 Pt/plasmid | D0 (Pt lesions per plasmid required to reduce transcription levels to 37% of control) ([12]; A549, 36 h after transfection): 29.5 Pt/plasmid | D0 (Pt lesions per plasmid required to reduce transcription levels to 37% of control) ([12]; A549, 48 h after transfection): 36.4 Pt/plasmid | transcription level (normalized against unplatinated plasmid) ([12]; A549, 60 h): 60.2% | D0 (Pt lesions per plasmid required to reduce transcription levels to 37% of control) ([12]; A549, 60 h after transfection): 42.6 Pt/plasmid | transcription level (normalized against unplatinated plasmid) ([13]; HT29, 12 h): 15.6% | D0 (Pt lesions per plasmid required to reduce transcription levels to 37% of control) ([13]; HT29, 12 h after transfection): 9.9 Pt/plasmid | D0 (Pt lesions per plasmid required to reduce transcription levels to 37% of control) ([13]; HT29, 24 h after transfection): 14.5 Pt/plasmid | D0 (Pt lesions per plasmid required to reduce transcription levels to 37% of control) ([13]; HT29, 36 h after transfection): 19.2 Pt/plasmid | D0 (Pt lesions per plasmid required to reduce transcription levels to 37% of control) ([13]; HT29, 48 h after transfection): 22.1 Pt/plasmid | transcription level (normalized against unplatinated plasmid) ([13]; HT29, 60 h): 42.9% | D0 (Pt lesions per plasmid required to reduce transcription levels to 37% of control) ([13]; HT29, 60 h after transfection): 30.0 Pt/plasmid

IC50 ([1]; Table 5, A549, 72-h incubation): 8.11 ± 0.68 µM | IC50 ([2]; Table 5, HeLa, 72-h incubation): 12.2 ± 0.8 µM | IC50 ([4]; Table 5, U2OS): 23.5 ± 2.7 µM | IC50 ([5]; Table 5, HT29, 72-h incubation): 38 ± 4.5 µM
Molecule: cis-[Pt(NH3)2(quinoline)Cl]NO3
IC50 ([8]; Table 5, MRC5, 72-h incubation): 23.5 ± 1.6 µM

Molecule: N.N.O=[N+]([O-])[O-].[Cl][Pt+].c1ccc2nc3ccccc3cc2c1 [cis-[Pt(NH3)2(acridine)Cl]NO3]
IC50 ([1]; Table 5, A549, 72-h incubation): 3.74 ± 0.01 µM | IC50 ([2]; Table 5, HeLa, 72-h incubation): 2.69 ± 0.1 µM | IC50 ([4]; Table 5, U2OS): 4.42 ± 0.31 µM | IC50 ([5]; Table 5, HT29, 72-h incubation): 13.5 ± 0.7 µM | IC50 ([8]; Table 5, MRC5, 72-h incubation): 9.17 ± 0.47 µM

IC50 ([1]; Table 5, A549, 72-h incubation): 50.6 ± 1.7 µM | IC50 ([5]; Table 5, HT29, 72-h incubation): 63.8 ± 1.9 µM
Molecule: cis-[Pt(NH3)2 (2-methylpyridine)Cl]NO3
IC50 ([8]; Table 5, MRC5, 72-h incubation): 58.9 ± 4.2 µM

Molecule: Cc1cccnc1N.N.N.O=[N+]([O-])[O-].[Cl][Pt+] [cis-[Pt(NH3)2 (2-amino-3-methylpyridine)-Cl]NO3]
IC50 ([1]; Table 5, A549, 72-h incubation): 47.1 ± 1.4 µM | IC50 ([5]; Table 5, HT29, 72-h incubation): 72.9 ± 4.6 µM | IC50 ([8]; Table 5, MRC5, 72-h incubation): 51.7 ± 7.7 µM
